Laboratory results: patent publication US11116747B2, “Compositions comprising proanthocyanidins and oenothein B” (Nugerontix Limited, priority 2014, dated 2021)

Assays:
endothelin-1 (ET-1) mRNA = assay: Endothelin-1 mRNA levels in endothelial cells by qRT-PCR; type: cell-based, bovine; settings: 24 h; OTb 1 μg/ml, Ap-OPC 1 μg/ml; normalised to RNA polymerase 2; FIG. 4(C)
Description: (§1) The effects on endothelin-1 synthesis of purified procyanidins and ellagitannins, either alone or in combination, are tested on human, bovine or porcine aortic endothelial cells cultured in multi-well plates. Cells are grown in a CO2 incubator with specific growth media until becoming confluent. Purified extracts, chromatography fractions, or isolated procyanidins and ellagitannins are evaluated after dilution in cell culture media and then incubated for up to 24 h with the cultured cells. At the end of the incubation period cell culture media samples are collected, and endothelin-1 synthesis is determined by immunoassay of the media samples. ET-1 release for each treated well is expressed as a percentage of basal release from control wells containing cells incubated with cell culture medium alone. Data are compared and analysed for statistically significant differences using life sciences software such as Graphpad Prism (available from www.graphpad.com). At the end of the incubation period cells are lysed to obtain mRNA to measure changes in gene expression that indicate improved endothelial function. Analyses of relative levels of mRNA transcripts are undertaken by quantitative reverse transcription polymerase chain reaction (qRT-PCR) (Journal of Agricultural and Food Chemistry, 2010, 58: 4008-13). […]

[1] = test system: bovine aortic endothelial cells; assay: Binding of biotinylated-OPC to endothelial cells (neutravidin-horseradish peroxidase/TMB detection); type: cell-based; settings: oenothein B 30 min preincubation, then biotinylated-OPC 1 μg/ml with oenothein B 30 min, FIG. 1(C)
Description: Bovine aortic endothelial cells were incubated with oenothein B (μg/ml) from pomegranate juice for 30 min before addition of biotinylated-OPC (1 μg/ml) alone or with oenothein B (μg/ml) for 30 min. After removal of the incubation mixture, bound biotinylated-OPC was detected by incubation with neutravidin-horseradish peroxidase for 1 h; followed by addition of TMB substrate for 30 min after cells had been rinsed twice to remove excess neutravidin-horseradish peroxidase. Binding is indicated relative to biotinylated-OPC alone after subtraction of background signal. (All data are shown as mean±SD; *=P<0.05; **=P<0.01; ***=P<0.001 indicates significant differences from basal or control values). […] From this it can be concluded that oenothein B increases the affinity of endothelial cells for procyanidins, and enhances the effectiveness of procyanidins for reversing endothelial dysfunction.

endothelin-1 synthesis = assay: Inhibition of endothelin-1 synthesis by endothelial cells (immunoassay of conditioned media); type: cell-based, bovine; settings: for endothelin-1 synthesis, percentage of basal values: Rb-ET 2 μg/ml, GS-OPC 1 μg/ml, alone or in combination
Description: The effects on endothelin-1 synthesis of purified procyanidins and ellagitannins, either alone or in combination, are tested on human, bovine or porcine aortic endothelial cells cultured in multi-well plates. Cells are grown in a CO2 incubator with specific growth media until becoming confluent. Purified extracts, chromatography fractions, or isolated procyanidins and ellagitannins are evaluated after dilution in cell culture media and then incubated for up to 24 h with the cultured cells. At the end of the incubation period cell culture media samples are collected, and endothelin-1 synthesis is determined by immunoassay of the media samples. ET-1 release for each treated well is expressed as a percentage of basal release from control wells containing cells incubated with cell culture medium alone. Data are compared and analysed for statistically significant differences using life sciences software such as Graphpad Prism (available from www.graphpad.com). At the end of the incubation period cells are lysed to obtain mRNA to measure changes in gene expression that indicate improved endothelial function. Analyses of relative levels of mRNA transcripts are undertaken by quantitative reverse transcription polymerase chain reaction (qRT-PCR) (Journal of Agricultural and Food Chemistry, 2010, 58: 4008-13).
Oenothein B (>95% purity) was purified from pomegranate juice by Sephadex LH20 chromatography and reverse-phase HPLC (step 1—Apex Prepsil 8 μm C-18 10×250 mm HPLC column—Jones Chromatography; step 2 Luna 5 μm PFP(2) 4.6×250 mm HPLC column—Phenomenex). Ability to modify endothelial function was assessed by incubating oenothein B with bovine aortic endothelial cells and measuring endothelin-1 synthesis following previously described methods (Journal of Agricultural and Food Chemistry, 2010, 58: 4008-13).
Biologically active biotin-labelled apple oligomeric procyanidins were prepared as follows: apple polyphenol extract was fractionated on Sephadex LH20 to obtain a fraction enriched in apple oligomeric procyanidins (OPC) tetramers to hexamers. The fraction was dried, re-dissolved in dimethyl formamide and reacted with the tetrafluorophenyl ester of triethyleneglycol-biotin (Thermo Scientific EZ-Link™ TFP-PEG3-Biotin). […]
Ellagitannins: oenothein B (OTb, 1 μg/ml), raspberry seed extract (Rb-ET 2 μg/ml); oligomeric procyanidins (OPC): grape seed extract (GS-OPC, 1 μg/ml) and apple extract (Ap-OPC, 1 μg/ml) purified as above, were incubated either alone, or in combination, with bovine aortic endothelial cells for 6 h and 24 h (FIGS. 2(A) and 2(B)). […] Statistical differences were determined by ANOVA (**=P<0.01; ***=P<0.001 indicates significant difference compared to basal values; ^+++=P<0.001 compared to the individual components of the combinations alone). […]

[2] = test system: endothelial nitric oxide synthase (eNOS) mRNA; assay: eNOS mRNA levels in endothelial cells by qRT-PCR; type: cell-based, bovine; settings: 24 h; OTb 1 μg/ml, Ap-OPC 1 μg/ml; normalised to RNA polymerase 2; FIG. 4(B)
Description: as §1

[3] = test system: Kruppel-like factor 2 (KLF2) mRNA; assay: KLF2 mRNA levels in endothelial cells by qRT-PCR; type: cell-based, bovine; settings: 24 h; OTb 1 μg/ml, Ap-OPC 1 μg/ml; normalised to RNA polymerase 2; FIG. 4(A)
Description: as §1

Compound: O=C(O[C@@H]1[C@H]2OC(=O)c3cc(O)c(O)c(O)c3Oc3cc4c(c(O)c3O)-c3c(cc(O)c(O)c3O)C(=O)OC[C@H]3O[C@@H](O)[C@H](OC(=O)c5cc(O)c(O)c(O)c5Oc5cc6c(c(O)c5O)-c5c(cc(O)c(O)c5O)C(=O)O[C@@H]1[C@@H](COC6=O)O[C@H]2O)[C@@H](OC(=O)c1cc(O)c(O)c(O)c1)[C@@H]3OC4=O)c1cc(O)c(O)c(O)c1 [oenothein B]
- endothelin-1 (ET-1) mRNA levels, ratio to control (endothelin-1 (ET-1) mRNA): largely unaffected
- binding of biotinylated-OPC relative to biotinylated-OPC alone [1]: binding of procyanidins increases as oenothein B concentration increases
- endothelin-1 synthesis, percentage of basal values (endothelin-1 synthesis; 6 h incubation, OTb 1 μg/ml, Ap-OPC 1 μg/ml, FIG. 2(A)): inhibited endothelin-1 synthesis
- endothelin-1 total synthesis (endothelin-1 synthesis; 24 h, OTb 1 μg/ml, Ap-OPC 1 μg/ml, Example 19, FIG. 4(D)): largely unaffected
- endothelin-1 synthesis, percentage of basal values (endothelin-1 synthesis; 24 h incubation, OTb 1 μg/ml, Ap-OPC 1 μg/ml, FIG. 2(B)): much reduced
- inhibition of endothelin-1 synthesis (endothelin-1 synthesis; bovine aortic endothelial cells, FIG. 1(A), 1(B)): concentration dependent
- eNOS mRNA levels, ratio to control [2]: little effect
- KLF2 mRNA levels, ratio to control [3]: relatively insignificant
